Reference: patent publication US6286513A, “Methods for treating superficial bladder carcinoma” (priority 1998, dated 2001)
“Also recorded” adds a separate entry of the source.

Key:
T1 tumors = assay: Recurrence in patients with T1 tumors (Kaplan-Meier); type: in vivo
Excerpt: The Kaplan-Meier Curve is a conventional tool used to project treatment outcome such as the % of patients who remain alive or free of disease at a certain time interval. (Martin Bland, Introduction to Medical Statistics (1994) Oxford Press). The Kaplan Meier Curve was used to compare the customary experimental therapy to the high efficacy therapy. When compared to the customary experimental therapy, the high efficacy therapy increased the percentage of all patients who are projected to remain recurrence-freefor longer than 5 years from 20 to 41%. The improvement was similar for patients with T1 tumors which were growing in the deeper bladder tissue layers (i.e. increase from 16% to 44%) and for patients with Ta tumors which were growing in the urothelial surface of the bladder (i.e. increase from 20% to 37%).

[1] = previous studies, cited from earlier work
[2] = test system: Ta, T1 or Tis bladder tumors; assay: Clinical trial of adjuvant intravesical MMC after transurethral resection: recurrence in Ta, T1 or Tis bladder tumor patients (Example 1, Table 2, FIG. 1); type: in vivo; conditions: for median time to recurrence: all patients (Ta, T1, Tis); for percentage of patients projected to be tumor recurrence-free at the end of 5 years: all patients, Kaplan-Meier projection
Protocol: One hundred and eight patients with histologically proven primary or recurrent transitional cell carcinoma of grade I to grade III and of stage Ta, T1 or Tis who had their tumors completely resected received the high efficacy therapy within 4 weeks after surgery.
The high efficacy therapy was administered once weekly for a total of six treatments. The MMC dosing solution was made by adding 40 mg of MMC to a vial containing 20 ml of sterile water.
To reduce urine production in the patients during treatment with the MMC dosing solution, the patients were instructed to refrain from fluids for 8 hours prior to and during treatment with the MMC dosing solution. To maintain the pH levels of the urine produced during treatment with the MMC dosing solution, the patients were given 1.3 grams of sodium bicarbonate the night prior to treatment, upon rising on the morning of treatment and 30 minutes prior to treatment. Then a Foley catheter was placed in the bladder of the patients and the bladder was drained by gravity. This was accomplished by holding the catheter end below the level of the bladder. The post void residual urine volume was determined using a bladder ultrasound machine. Drainage of the bladder was repeated until the residual urine volume was less than 10 ml. Drainage was aided by having the patient sit up or stand up, or reach forward while standing. Thereafter, 40 mg of MMC in 20 ml sterile water was instilled intravesically by gravity into the bladder of the patient and retained there for 2 hours. After the 2 hour therapy, bladder contents were drained from the patients and the volume and pH of the contents measured.
For purposes of comparison, 97 matching control patients from whom primary Ta, T1 or Tis bladder tumors had been completely resected were subjected to the customary experimental MMC intravesical therapy weekly for six weeks. These patients were not instructed to refrain from fluids for 8 hours prior to or during the customary experimental therapy. Prior to instillation of the 1 mg/ml MMC dosing solution, the patients were placed in the supine or dorsal lithotomy position and a Foley catheter inserted transurethrally into the bladder of the patients. The bladders were drained by gravity and the post void urine residual volume was measured. No attempts were made to further reduce the residual urine volume. Thereafter, 20 mg of MMC in 20 ml sterile water was instilled intravesically by gravity into the bladders of the patients and retained for 2 hours. After the 2 hour therapy, bladder contents were drained from the patients and the volume and pH of the contents measured.
Cytoscopy was performed on each surviving patient quarterly at three months for 2 years and then at 3 months or six months for the remaining 3 years to look for evidence of visible tumors. Urine cytology was performed on each surviving patient quarterly at three months for 2 years and then at 3 months or six months for the remaining 3 years to look for cells with aneuploid DNA contents. […] If necessary, i.e., if tumor recurrence was suspected, the follow-up included biopsy of the suspicious area and transurethral resection of the bladder tumor. Patients with proven recurrence were treated according to standards in the clinical community.
At each time period the number of patients who had developed histologically proven recurrent or progressive disease on biopsy or cytology was determined. The percentage of patients who remained tumor free at each time period after receiving the high efficacy therapy or the customary experimental therapy is shown in FIG. 1.
The Kaplan-Meier Curve is a conventional tool used to project treatment outcome such as the % of patients who remain alive or free of disease at a certain time interval. (Martin Bland, Introduction to Medical Statistics (1994) Oxford Press). The Kaplan Meier Curve was used to compare the customary experimental therapy to the high efficacy therapy. […]

Tis tumors = assay: Recurrence in patients with Tis tumors (Example 4); type: in vivo
Protocol: Ten patients from whom one or more foci of Tis had been removed were treated weekly for six weeks with the high efficacy therapy as described above in example 1 and 12 patients from whom one or more foci of Tis had been removed were treated weekly for six with the standard MMC intravesical therapy as described in example 1. […] The projected 5-year recurrence free rate is 43% for the high efficacy treatment and 19% for the standard treatment.

[3] = test system: recurrent Ta, T1 or Tis tumors; assay: Recurrence in patients with recurrent tumors (Example 2, FIG. 12); type: in vivo; conditions: for median time to recurrence / projected 5-year tumor recurrence free rate: recurrent tumors
Protocol: Seventy-seven patients from whom recurrent Ta, T1 or Tis tumors had been resected were treated weekly for six weeks with the high efficacy therapy as described above in example 1 and 68 patients from whom recurrent Ta, T1 or Tis tumors had been resected were treated by the customary experimental therapy as described in example 1. All patients had undergone at least one previous round of therapy, to several previous rounds of resection plus chemotherapy consisting of treatment with BCG, MMC, doxorubicin and doxorubicin and cisplatin. For example, 44 patients treated with the high efficacy treatment and 42 patients treated with the customary experimental method had at least two tumor resections. Thirty-eight patients in each of the two treatment arms fad received previous tumor resections plus at least one series of adjuvant chemotherapy. All patients were evaluated as described in example 1.

[4] = test system: superficial bladder carcinomas; conditions: customary experimental MMC, weekly, 1 mg/ml in 20-40 ml, six to eight weeks; cited from earlier work
aneuploid tumors = assay: Recurrence in patients with aneuploid tumors; type: in vivo; conditions: high efficacy therapy
[5] = customary experimental MMC intravesical therapy

COC12C(COC(N)=O)C3=C(C(=O)C(C)=C(N)C3=O)N1CC1NC12 (centres unmarked) [MMC]
percentage of patients projected to remain recurrence-free for longer than 5 years (T1 tumors; customary experimental therapy): 16%
percentage of patients projected to remain recurrence-free for longer than 5 years (T1 tumors; high efficacy therapy): 44%
systemic dose without significant host toxicity ([1]; MMC given systemically): ≤ 50 mg
blood level of MMC without significant host toxicity [1]: below 400 ng/ml
median time to recurrence [2, 5]: 292 days
percentage of patients projected to be tumor recurrence-free at the end of 5 years [2, 5]: 20%
percentage of patients projected to remain tumor recurrence free for 5 years, vs customary therapy ([2]; high efficacy therapy, Ta, T1, Tis): more effective in enhancing the percentage or fraction of Ta, T1, Tis bladder tumor patients that are projected to remain tumor recurrence free for a period of 5 years
rate of recurrence and time interval before tumor recurrence, vs customary therapy ([2]; high efficacy therapy, Ta, T1 or Tis): more effective at reducing the rate of recurrence and increasing the time interval before tumor recurrence is observed; also recorded: tumors recurred at a later time in patients receiving the high efficacy treatment
median time to recurrence ([2]; high efficacy therapy): 754 days
percentage of patients projected to be tumor recurrence-free at the end of 5 years ([2]; high efficacy therapy): 41%
(median time to recurrence; words missing in text) (Tis tumors; customary experimental treatment): 106 days
projected 5-year recurrence free rate (Tis tumors; high efficacy treatment): 43%
projected 5-year recurrence free rate (Tis tumors; standard treatment): 19%
median time to recurrence ([3]; customary experimental therapy): 339 days
projected 5-year tumor recurrence free rate ([3]; customary experimental therapy): 26%
median time to recurrence ([3]; high efficacy therapy): 754 days
projected 5-year tumor recurrence free rate ([3]; high efficacy therapy): 39%
delaying and preventing tumor recurrence, vs customary therapy ([3]; high efficacy therapy, recurrent tumors despite other adjuvant therapies): more effective
additional patients without recurrent tumor at 1 year vs transurethral resection alone [4]: 1-13%
delaying and preventing tumor recurrence, vs customary therapy (aneuploid tumors): more effective
